Assay results from patent publication US9169254B2, “Spiroimidazolone derivative” (Chugai Seiyaku Kabushiki Kaisha, priority 2009, dated 2015).
Counter-ions that a name gives are not always drawn.

target: T1, human PTH1 receptor (Homo sapiens, UniProt Q03431); assay: In vitro cAMP signal activity in HKRK-B7 cells (LLC-PK1 cells overexpressing the human PTH1 receptor); assay type: cell-based; details: HKRK-B7 cells; compound at 1×10^−3 M; cAMP produced as percentage of that produced by hPTH(1-34) at 100 nM
T1 sequence (Q03431 27-593): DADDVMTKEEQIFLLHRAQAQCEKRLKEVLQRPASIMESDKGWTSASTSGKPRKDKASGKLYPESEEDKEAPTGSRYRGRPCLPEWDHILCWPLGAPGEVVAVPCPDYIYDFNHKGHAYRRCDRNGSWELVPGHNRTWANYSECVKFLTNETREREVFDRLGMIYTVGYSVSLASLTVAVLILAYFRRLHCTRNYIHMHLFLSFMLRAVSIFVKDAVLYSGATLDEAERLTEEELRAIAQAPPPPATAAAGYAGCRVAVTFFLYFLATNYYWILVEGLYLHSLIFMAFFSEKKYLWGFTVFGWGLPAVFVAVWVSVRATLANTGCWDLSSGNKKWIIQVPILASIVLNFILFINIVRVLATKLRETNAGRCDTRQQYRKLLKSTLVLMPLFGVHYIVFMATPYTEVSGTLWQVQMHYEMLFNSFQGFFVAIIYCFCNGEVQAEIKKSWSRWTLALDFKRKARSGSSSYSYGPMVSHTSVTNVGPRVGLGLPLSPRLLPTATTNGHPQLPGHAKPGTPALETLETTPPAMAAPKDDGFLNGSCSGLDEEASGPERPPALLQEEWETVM

Structure (SMILES)	cAMP production activity (%)
Cc1cc(C(=O)N2CCC(O)(CF)CC2)cc(C)c1/C=C/S(=O)(=O)N1CCC2(CC1)N=C(c1ccc(C(F)(F)F)c(OC(C)(C)C(F)(F)F)c1)NC2=O [Compound 1266, 8-{(E)-2-[4-(4-fluoromethyl-4-hydroxy-piperidine-1-carbonyl)-2,6-dimethyl-phenyl]-ethenesulfonyl}-2-[3-(2,2,2-trifluoro-1,1-dimethyl-ethoxy)-4-trifluoromethyl-phenyl]-1,3,8-triaza-spiro[4.5]dec-1-en-4-one]	96%
CCCCCCCCCC1=NC2(CCN(S(=O)(=O)CCc3c(C)cc(C(=O)N4CC(O)C4)cc3C)CC2)C(=O)N1 [Compound 985, 8-{2-[4-(3-hydroxy-azetidine-1-carbonyl)-2,6-dimethyl-phenyl]-ethanesulfonyl}-2-nonyl-1,3,8-triaza-spiro[4.5]dec-1-en-4-one]	120%
COCCN(C(N)=O)c1cc(C)c(/C=C/S(=O)(=O)N2CCC3(CC2)N=C(C2CCC(CCC(F)(F)F)CC2)NC3=O)c(C)c1 (stereo not drawn) [Compound 725, 1-[3,5-dimethyl-4-((E)-2-{4-oxo-2-[4-(3,3,3-trifluoro-propyl)-cyclohexyl]-1,3,8-triaza-spiro[4.5]dec-1-ene-8-sulfonyl}-vinyl)-phenyl]-1-(2-methoxy-ethyl)-urea]	58%
CC(=O)Nc1cccc(C)c1/C=C/S(=O)(=O)N1CCC2(CC1)N=C(C1CCCCC1)NC2=O [Compound 190, N-{2-[(E)-2-(2-cyclohexyl-4-oxo-1,3,8-triaza-spiro[4.5]dec-1-ene-8-sulfonyl)-vinyl]-3-methyl-phenyl}-acetamide]	61%
CC(=O)N(C)c1cc(C)c(/C=C/S(=O)(=O)N2CCC3(CC2)N=C(c2cccc(OC(F)(F)F)c2)NC3=O)c(C)c1 [Compound 239, N-(3,5-dimethyl-4-{(E)-2-[4-oxo-2-(3-trifluoromethoxy-phenyl)-1,3,8-triaza-spiro[4.5]dec-1-ene-8-sulfonyl]-vinyl}-phenyl)-N-methyl-acetamide]	80%
Cc1noc(C)c1-c1ccccc1CCS(=O)(=O)N1CCC2(CC1)N=C(C1CCCCC1)NC2=O [Compound 338, 2-Cyclohexyl-8-{2-[2-(3,5-dimethyl-isoxazol-4-yl)-phenyl]-ethanesulfonyl}-1,3,8-triaza-spiro[4.5]dec-1-en-4-one]	60%
Cc1cc(N2C(=O)CCC2CO)ccc1/C=C/S(=O)(=O)N1CCC2(CC1)N=C(c1cccc(C(F)(F)F)c1)NC2=O (stereo in doubt) [Compound 221, 8-{(E)-2-[4-((R)-2-hydroxymethyl-5-oxo-pyrrolidin-1-yl)-2-methyl-phenyl]-ethenesulfonyl}-2-(3-trifluoromethyl-phenyl)-1,3,8-triaza-spiro[4.5]dec-1-en-4-one]	103%
O=C1NC(c2cccc(OC(F)(F)F)c2)=NC12CCN(S(=O)(=O)CCc1cccc3cnccc13)CC2 [Compound 653, 8-(2-Isoquinolin-5-yl-ethanesulfonyl)-2-(3-trifluoromethoxy-phenyl)-1,3,8-triaza-spiro[4.5]dec-1-en-4-one]	67%
Cc1cc(C(=O)N2CCC(O)(CF)CC2)cc(C)c1/C=C/S(=O)(=O)N1CCC2(CC1)N=C(c1ccc(OCC(F)(F)F)c(F)c1)NC2=O [Compound 1260, 8-{(E)-2-[4-(4-fluoromethyl-4-hydroxy-piperidine-1-carbonyl)-2,6-dimethyl-phenyl]-ethenesulfonyl}-2-[3-fluoro-4-(2,2,2-trifluoro-ethoxy)-phenyl]-1,3,8-triaza-spiro[4.5]dec-1-en-4-one]	81%
CC(=O)N(c1cc(C)c(/C=C/S(=O)(=O)N2CCC3(CC2)N=C(C2CCCCC2)NC3=O)c(C)c1)C1CCC(O)CC1 (stereo not drawn) [Compound 709, N-{4-[(E)-2-(2-cyclohexyl-4-oxo-1,3,8-triaza-spiro[4.5]dec-1-ene-8-sulfonyl)-vinyl]-3,5-dimethyl-phenyl}-N-(4-hydroxy-cyclohexyl)-acetamide]	58%
CN[C@@H]1CCN(C(=O)c2cc(C)c(/C=C/S(=O)(=O)N3CCC4(CC3)N=C(c3cccc(OC(F)(F)F)c3)NC4=O)c(C)c2)C1 [Compound 398, 8-{(E)-2-[2,6-dimethyl-4-((R)-3-methylamino-pyrrolidine-1-carbonyl)-phenyl]-ethenesulfonyl}-2-(3-trifluoromethoxy-phenyl)-1,3,8-triaza-spiro[4.5]dec-1-en-4-one]	52%
Cc1cc(N(C)C(=O)CO)ccc1/C=C/S(=O)(=O)N1CCC2(CC1)N=C(c1cccc(OC(F)(F)F)c1)NC2=O [Compound 451, 2-Hydroxy-N-methyl-N-(3-methyl-4-{(E)-2-[4-oxo-2-(3-trifluoromethoxy-phenyl)-1,3,8-triaza-spiro[4.5]dec-1-ene-8-sulfonyl]-vinyl}-phenyl)-acetamide]	96%
CCCCC1CCC(C2=NC3(CCN(S(=O)(=O)/C=C/c4c(C)cc(C(=O)N5CCC(OCCOCCO)CC5)cc4C)CC3)C(=O)N2)CC1 (stereo not drawn) [Compound 1009, 2-(4-butyl-cyclohexyl)-8-[(E)-2-(4-{4-[2-(2-hydroxy-ethoxy)-ethoxy]-piperidine-1-carbonyl}-2,6-dimethyl-phenyl)-ethenesulfonyl]-1,3,8-triaza-spiro[4.5]dec-1-en-4-one]	70%
Cc1cc(C(=O)N2CC(O)C2)cc(C)c1/C=C/S(=O)(=O)N1CCC2(CC1)N=C(c1ccc(F)c(OC(F)(F)F)c1)NC2=O [Compound 1102, 2-(4-Fluoro-3-trifluoromethoxy-phenyl)-8-{(E)-2-[4-(3-hydroxy-azetidine-1-carbonyl)-2,6-dimethyl-phenyl]-ethenesulfonyl}-1,3,8-triaza-spiro[4.5]dec-1-en-4-one]	10%
CCCCC1CCC(C2=NC3(CCN(S(=O)(=O)CCc4c(C)cc(N5C(=O)CNC5=O)cc4C)CC3)C(=O)N2)CC1 (stereo not drawn) [Compound 677, 3-(4-{2-[2-(4-Butyl-cyclohexyl)-4-oxo-1,3,8-triaza-spiro[4.5]dec-1-ene-8-sulfonyl]-ethyl}-3,5-dimethyl-phenyl)-imidazolidine-2,4-dione]	69%
O=C(CNc1ccc(CCS(=O)(=O)N2CCC3(CC2)N=C(C2CCCCC2)NC3=O)c(C(F)(F)F)c1)NCCCCO [Compound 660, 2-{4-[2-(2-cyclohexyl-4-oxo-1,3,8-triaza-spiro[4.5]dec-1-ene-8-sulfonyl)-ethyl]-3-trifluoromethyl-phenylamino}-N-(4-hydroxy-butyl)-acetamide]	60%
Cc1cc(N(C)c2ncc[nH]2)cc(C)c1/C=C/S(=O)(=O)N1CCC2(CC1)N=C(C1CCC(C)CC1)NC2=O (stereo not drawn) [Compound 586, 8-((E)-2-{4-[(1H-imidazol-2-yl)-methyl-amino]-2,6-dimethyl-phenyl}-ethenesulfonyl)-2-(4-methyl-cyclohexyl)-1,3,8-triaza-spiro[4.5]dec-1-en-4-one]	82%
COC(=O)N1CCCC(C2=NC3(CCN(S(=O)(=O)c4cccc(Cl)c4)CC3)C(=O)N2)C1 (stereo not drawn) [Compound 463, 3-[8-(3-chloro-benzenesulfonyl)-4-oxo-1,3,8-triaza-spiro[4.5]dec-1-en-2-yl]-piperidine-1-carboxylic acid methyl ester]	28%
CNc1cc(C)c(CCS(=O)(=O)N2CCC3(CC2)N=C(C2CCCN2)NC3=O)c(C)c1 (stereo not drawn) [Compound 1286, 8-[2-(2,6-Dimethyl-4-methylamino-phenyl)-ethanesulfonyl]-2-pyrrolidin-2-yl-1,3,8-triaza-spiro[4.5]dec-1-en-4-one dihydrochloride]	35%
O=C1NC(C2CCCN(S(=O)(=O)CCc3cccc4ccccc34)C2)=NC12CCN(S(=O)(=O)CCc1cccc3ccccc13)CC2 (stereo not drawn) [Compound 39, 8-(2-Naphthalen-1-yl-ethanesulfonyl)-2-[1-(2-naphthalen-1-yl-ethanesulfonyl)-piperidin-3-yl]-1,3,8-triaza-spiro[4.5]dec-1-en-4-one]	25%
O=C1NC(C2CCCCC2)=NC12CCN(S(=O)(=O)/C=C/c1c(F)cccc1C(F)(F)F)CC2 [Compound 183, 2-cyclohexyl-8-[(E)-2-(2-fluoro-6-trifluoromethyl-phenyl)-ethenesulfonyl]-1,3,8-triaza-spiro[4.5]dec-1-en-4-one]	68%
Cc1cc(N2CCCCC2=O)cc(C)c1CCS(=O)(=O)N1CCC2(CC1)N=C(C1CCC(C)CC1)NC2=O (stereo not drawn) [Compound 771, 8-{2-[2,6-dimethyl-4-(2-oxo-piperidin-1-yl)-phenyl]-ethanesulfonyl}-2-(4-methyl-cyclohexyl)-1,3,8-triaza-spiro[4.5]dec-1-en-4-one]	80%
Cc1cc(C(=O)N2CCC2)ccc1CCS(=O)(=O)N1CCC2(CC1)N=C(c1cccc(C(F)(F)F)c1)NC2=O [Compound 381, 8-{2-[4-(azetidine-1-carbonyl)-2-methyl-phenyl]-ethanesulfonyl}-2-(3-trifluoromethyl-phenyl)-1,3,8-triaza-spiro[4.5]dec-1-en-4-one]	72%
CCCCCCC(CCC)CCC1=NC2(CCN([S@TB18](=O)(=O)/C=C/c3c(C)cc(N(C)C(N)=O)cc3C)CC2)C(=O)N1 (stereo not drawn) [Compound 1126, 1-(3,5-dimethyl-4-{(E)-2-[4-oxo-2-(3-propyl-nonyl)-1,3,8-triaza-spiro[4.5]dec-1-ene-8-sulfonyl]-vinyl}-phenyl)-1-methyl-urea]	106%
